Test results as given in patent US10073082B2, “Proteasome inhibition assay and methods of use” (UNIVERSITY HEALTH NETWORK, priority 2013, dated 2018).
Peptide text beside a SMILES is read from it. * marks the point of attachment. Cbz = O=C(OCc1ccccc1)*

B1: CD40L: IκB degradation agonist (protein, UniProt P29965 113-261, looked up)
CD40 ligand, soluble form: MQKGDQNPQIAAHVISEASSKTTSVLQWAEKGYYTMSNNLVTLENGKQLTVKRQGLYYIYAQVTFCSNREASSQAPFIASLCLKSPGRFERILLRAANTHSSAKPCGQQSIHLGGVFELQPGASVFVNVTDPSQVSHGTGFTSFGLLKL

Legend:
Assay type in all cases: cell-based, human
[1] = test system: peripheral blood monocytes; test: IκB degradation agonists in whole blood: IκB degradation and signaling pathway activation in monocytes; settings: for Pathways Activated: Target Cell Population: Monocytes
Procedure: (§1) Whole blood samples from normal human donors were collected. 100 μL aliquots of the whole blood were inserted into the bottom of 12×75 mm tubes. In order to reduce the potential for contamination of the sample with unfixed cells, blood was removed from the side of the tubes with a cotton swab. 1-2 μL of a proteasome effector was added to a first portion of the tubes and these tubes were incubated for 2 hours at 37° C. in a water bath. In this example, the proteasome effector was Bortezomib or MG-132, both proteasome inhibitors. Following pretreatment with the proteasome effector, 2 μL of […] stock solution (100 ng) of an IκB degradation agonist was added to the tubes and the tubes were incubated from 1 minute to 60 minutes at 37° C. in a water bath. In this example, the agonist was lipopolysaccharide (LPS). A second portion of the tubes were treated with the IκB degradation agonist and no proteasome effector. 2 μL of an IκB degradation agonist was added to these tubes and the tubes were incubated from 1 minute to 60 minutes as described above. For control tubes, 2 μL of phosphate buffered saline (PBS) was added to the tubes and the tubes were incubated as described above.
(§2) Following incubation, the cells were fixed and permeabilized with a PerFix-P® kit (Beckman Coulter, Inc., Brea. Calif.) according to the manufacturer's instructions. The fixed and permeabilized cells were then washed with 2 mL of Wash Buffer (PBS (w/o Ca++/Mg++) with 2% fetal bovine serum (FBS), sterile filtered (0.22 μm filter)) in the tubes and centrifuged at 500×g for 4 minutes. The cell pellet was resuspended in 2 mL of cold (4° C.) Wash Buffer, centrifuged at 500×g for 4 minutes, and the supernatant was aspirated.
(§3) Following the above wash steps, the fixed and permeabilized cells were resuspended in 100 μL of cold Wash Buffer comprising antibodies to specific intracellular antigens (e.g., signaling targets including P-ERK, P-Akt, P-p38, P-SAPK, P-S6, and antibodies to IκB). The antibodies were labeled with different fluorochromes (e.g. fluorophores) to facilitate their-individual measurement of the intracellular antigens. In order to target specific cell populations in the assay, antibodies capable of differentiating cell populations within the blood sample were also included in some of the tubes. For example, anti-CD14 antibodies were included to specifically label monocytes, anti-CD3 antibodies or anti-CD19 antibodies were included to specifically label T or B-cells respectively, and/or anti-CD38/CD138 antibodies were included to specifically label plasma cells. The cells were incubated with the antibodies for 30 minutes at room temperature and then the cells were washed in 2 mL of cold Wash Buffer and centrifuged as described above. The supernatant was aspirated and the cell pellet was resuspended in 350 μL of Resuspension Buffer (PerFix-P® kit) and analyzed on a flow cytometer (GALLIOS™) using a protocol with defined population gates and series of dual parameter histograms. A CD45-KO vs. SS dual parameter histogram was collected and a gate around the leukocyte population based on the CD45+ fluorescence and SS characteristics was drawn to exclude debris (CD45 negative events). A minimum of 2,500 CD14+ events were collected. A stop count region was set from the CD14-PC7 vs. SS histogram gated on monocytes. Dual parameter histograms gated on the appropriate populations were created to measure the populations of interest. The collected flow cytometric data was analyzed using KALUZA™ software.
(§4) Phosphorylation of signaling pathways activated by TNF-α, including ERK, Akt, and the ribosomal S6 protein, was monitored together with the degradation of IκB in peripheral blood WBCs. Whole blood samples were treated, activated, and processed as described in Example 1 and the degradation of IκB in peripheral blood cells was monitored by flow cytometry as described in Example 1. The IκB degradation agonist used in this example was TNF-α. […]

granulocytes = test: IκB degradation agonists in whole blood: IκB degradation and signaling pathway activation in granulocytes; settings: Target Cell Population: Granulocytes
Procedure: as §1, §2
Following the above wash steps, the fixed and permeabilized cells were resuspended in 100 μL of cold Wash Buffer comprising antibodies to specific intracellular antigens (e.g., signaling targets including P-ERK, P-Akt, P-p38, P-SAPK, P-S6, and antibodies to IκB). The antibodies were labeled with different fluorochromes (e.g. fluorophores) to facilitate their-individual measurement of the intracellular antigens. […] The supernatant was aspirated and the cell pellet was resuspended in 350 μL of Resuspension Buffer (PerFix-P® kit) and analyzed on a flow cytometer (GALLIOS™) using a protocol with defined population gates and series of dual parameter histograms. A CD45-KO vs. SS dual parameter histogram was collected and a gate around the leukocyte population based on the CD45+ fluorescence and SS characteristics was drawn to exclude debris (CD45 negative events). […] The collected flow cytometric data was analyzed using KALUZA™ software.

[2] = test system: peripheral blood lymphocytes; test: IκB degradation agonists in whole blood: IκB degradation and signaling pathway activation in lymphocytes; settings: for Pathways Activated: Target Cell Population: Lymphocytes (subpopulation); for Akt activation in lymphocytes / ERK activation in lymphocytes / degradation of IκB in lymphocytes / S6 activation in lymphocytes: agonist alone
Procedure: as §1, §2, §3, §4

[3] = test system: P-ERK (P-Thr202/P-Tyr204) in peripheral blood monocytes; test: ERK phosphorylation in LPS activated monocytes from pretreated whole blood; settings: for "early" (first) ERK phosphorylation peak / "late" (second) ERK activation peak: LPS activated monocytes; for "early" (first) ERK phosphorylation peak: 2-4 minutes; for "late" (second) ERK activation peak: about 10 minutes
Procedure: as §1, §2
as §3, with “In order to target specific cell populations in the assay, antibodies capable of differentiating cell populations within the blood sample were also included in some of the tubes.” left out, “A stop count region was set from the CD14-PC7 vs. SS histogram gated on monocytes. Dual parameter histograms gated on the appropriate populations were created to measure the populations of interest.” left out
(§5) Phosphorylation of signaling pathways activated by LPS, including ERK, Akt (activated by PI3 Kinase), and the ribosomal S6 protein (a marker of protein synthesis) were also monitored together with the degradation of IκB. […] The degradation of IκB in cells pretreated with MG-132 or GDC-0941 was monitored by flow cytometry as described in Example 1. […]

IκB in granulocytes = test: Flow cytometry assay, whole blood pretreated with effector: IκB levels in granulocytes after LPS; settings: whole blood pretreated with inhibitor, then LPS; 60 minutes time period
Procedure: (§6) The assay generally comprises treating whole blood with an IκB degradation agonist and/or proteasome effector, fixing the blood cells, permeabilizing the fixed bloods cells, treating the fixed and permeabilized cells with an alcohol treatment to unmask intracellular phosphor-epitopes, and then staining the treated cells with antibodies for flow cytometry analysis.
(§7) Whole blood samples from normal human donors were collected. 100 μL aliquots of the whole blood were inserted into the bottom of 12×75 mm tubes. In order to reduce the potential for contamination of the sample with unfixed cells, blood was removed from the side of the tubes with a cotton swab. […]
(§8) Following the above wash steps, the fixed and permeabilized cells were resuspended in 100 μL of cold Wash Buffer comprising antibodies to specific intracellular antigens (e.g., signaling targets including P-ERK, P-Akt, P-p38, P-SAPK, P-S6, and antibodies to IκB). […] The supernatant was aspirated and the cell pellet was resuspended in 350 μL of Resuspension Buffer (PerFix-P® kit) and analyzed on a flow cytometer (GALLIOS™) using a protocol with defined population gates and series of dual parameter histograms. A CD45-KO vs. SS dual parameter histogram was collected and a gate around the leukocyte population based on the CD45+ fluorescence and SS characteristics was drawn to exclude debris (CD45 negative events). […]

[4] = test system: P-Akt (P-Ser473) in peripheral blood monocytes; test: Akt phosphorylation in LPS activated monocytes from pretreated whole blood
Procedure: (§9) Whole blood samples from normal human donors were collected. 100 μL aliquots of the whole blood were inserted into the bottom of 12×75 mm tubes. In order to reduce the potential for contamination of the sample with unfixed cells, blood was removed from the side of the tubes with a cotton swab. 1-2 μL of a proteasome effector was added to a first portion of the tubes and these tubes were incubated for 2 hours at 37° C. in a water bath. In this example, the proteasome effector was Bortezomib or MG-132, both proteasome inhibitors. […]
(§10) Following the above wash steps, the fixed and permeabilized cells were resuspended in 100 μL of cold Wash Buffer comprising antibodies to specific intracellular antigens (e.g., signaling targets including P-ERK, P-Akt, P-p38, P-SAPK, P-S6, and antibodies to IκB). […] The supernatant was aspirated and the cell pellet was resuspended in 350 μL of Resuspension Buffer (PerFix-P® kit) and analyzed on a flow cytometer (GALLIOS™) using a protocol with defined population gates and series of dual parameter histograms. A CD45-KO vs. SS dual parameter histogram was collected and a gate around the leukocyte population based on the CD45+ fluorescence and SS characteristics was drawn to exclude debris (CD45 negative events). […] The collected flow cytometric data was analyzed using KALUZA™ software. […]

[5] = test system: IκB in peripheral blood monocytes; test: Flow cytometry assay, whole blood pretreated with effector: LPS induced degradation of IκB in monocytes; settings: whole blood pretreated with compound, then LPS
Procedure: as §1, with “2 μL of an IκB degradation agonist was added to these tubes and the tubes were incubated from 1 minute to 60 minutes as described above. For control tubes, 2 μL of phosphate buffered saline (PBS) was added to the tubes and the tubes were incubated as described above.” left out
Following the above wash steps, the fixed and permeabilized cells were resuspended in 100 μL of cold Wash Buffer comprising antibodies to specific intracellular antigens (e.g., signaling targets including P-ERK, P-Akt, P-p38, P-SAPK, P-S6, and antibodies to IκB). […] The supernatant was aspirated and the cell pellet was resuspended in 350 μL of Resuspension Buffer (PerFix-P® kit) and analyzed on a flow cytometer (GALLIOS™) using a protocol with defined population gates and series of dual parameter histograms. A CD45-KO vs. SS dual parameter histogram was collected and a gate around the leukocyte population based on the CD45+ fluorescence and SS characteristics was drawn to exclude debris (CD45 negative events). […] The collected flow cytometric data was analyzed using KALUZA™ software.
as §5

[6] = test system: P-S6 (P-Ser235/P-Ser236) in peripheral blood monocytes; test: S6 phosphorylation in LPS activated monocytes from pretreated whole blood
Procedure: as §9, §10

[7] = test system: IκB in peripheral blood lymphocytes; test: Flow cytometry assay, whole blood pretreated with effector: LPS induced degradation of IκB in lymphocytes; settings: whole blood pretreated with inhibitor, then LPS
Procedure: as §6, §7, §8

[8] = pathway: P-ERK/MAP kinase (Ras > Raf)
[9] = pathway: Tpl-2 > ERK/MAP kinase

Molecule	ERK activation in monocytes ([1]; agonist alone)	degradation of IκB in monocytes ([1]; agonist alone)	Pathways Activated (granulocytes)	Akt activation in lymphocytes [2]	ERK activation in lymphocytes [2]	degradation of IκB in lymphocytes [2]	Pathways Activated ([1]; pathway: IκB > NFκB)	Pathways Activated [1, 9]	Akt activation in monocytes ([1]; agonist alone)	Pathways Activated ([2]; pathway: PI3 kinase > Akt)	S6 activation in lymphocytes [2]	Akt activation [4]	effect on LPS induced degradation of IκB in monocytes [5]	"early" (first) ERK phosphorylation peak [3]	"late" (second) ERK activation peak [3]	other results
CCCCCCCCCCCCCC(=O)O[C@@H]1[C@@H](C)[C@@]2(O)[C@@H](C=C(CO)C[C@]3(O)C(=O)C(C)=C[C@@H]23)[C@@H]2C(C)(C)[C@]12OC(C)=O [PMA]	activation of ERK	no degradation of IκB	P-ERK/MAP kinase	not activated	activation of ERK	stimulated the degradation of IκB										Pathways Activated ([1]; pathway: (IκB is not degraded)): (IκB is not degraded); Pathways Activated [1, 8]: P-ERK/MAP kinase (Ras > Raf); Pathways Activated ([2]; pathway: IκB > NFκB (PKC?)): IκB > NFκB (PKC?); Pathways Activated [2, 8]: P-ERK/MAP kinase (Ras > Raf); Pathways Activated ([2]; pathway: P-S6 (P-ERK)): P-S6 (P-ERK); lymphocytes with both degradation of IκB and activation of ERK ([2]; over the 15 min time course): approximately 50%
N#CC(=C(/N)Sc1ccccc1N)/C(C#N)=C(\N)Sc1ccccc1N [U0126]																ERK activation ([3]; LPS stimulated monocytes, single late ERK peak 8-10 minutes, FIG. 19): inhibited
TNFα	activated	induced degradation of IκB	P-p38 MAP kinase	Neither Akt nor S6 was activated	no apparent response	induced degradation of IκB	IκB > NFκB	Tpl-2 > ERK/MAP kinase	Neither Akt nor S6 was activated	PI3 kinase > Akt	Neither Akt nor S6 was activated					Pathways Activated ([1]; pathway: PI3 kinase > Akt): PI3 kinase > Akt; S6 activation in monocytes ([1]; agonist alone): Neither Akt nor S6 was activated; time of peak loss of IκB after stimulation ([1]; monocytes): 10 min; Pathways Activated ([2]; pathway: ERK/MAP kinase (Tpl-2)): ERK/MAP kinase (Tpl-2); Pathways Activated ([2]; pathway: IκB > NFκB): IκB > NFκB; time of peak loss of IκB after stimulation ([2]; lymphocytes): 15 min
CC(C)C[C@@H](C=O)NC(=O)[C@H](CC(C)C)NC(=O)[C@H](CC(C)C)NC(=O)OCc1ccccc1 [MG-132] (Cbz-Leu-Leu-Leu-aldehyde)												no effect	inhibited degradation of IκB	not the first	inhibited	degradation of IκB in granulocytes (IκB in granulocytes): No significant degradation; MFI of the S6 phosphorylation response, lower than in the sample treated with only LPS [6]: approximately 50%; LPS induced degradation of IκB in lymphocytes [7]: No significant degradation
CS(=O)(=O)N1CCN(Cc2cc3nc(-c4cccc5[nH]ncc45)nc(N4CCOCC4)c3s2)CC1 [GDC-0941]												inhibited	no effect	inhibited	unchanged	activation of ribosomal S6 protein [6]: minimal impact
B1	low level of ERK activation			not activated	Neither ERK nor S6 were activated		IκB > NFκB	Tpl-2 > ERK/MAP kinase	not activated	PI3 kinase > Akt	Neither ERK nor S6 were activated					Pathways Activated ([1]; pathway: P38 MAP kinase): P38 MAP kinase; decrease of the level of IκB ([1]; monocytes, between 6 and 15 minutes post treatment): approximately 60%; Pathways Activated ([2]; pathway: IκB > NFκB (Tpl-2)): IκB > NFκB (Tpl-2); Pathways Activated [2, 9]: Tpl-2 > ERK/MAP kinase; decrease of the level of IκB ([2]; lymphocytes, between 40 and 45 minutes post treatment): approximately 40%
